Measurements: ChEMBL document CHEMBL3994564 (Medchemcomm, 2016)
≈ marks a conversion by molar mass, not a printed value.

Columns and labels:
[1] = molecular target: T1, Beta-ketoacyl-[acyl-carrier-protein] synthase III (Escherichia coli K-12, UniProt P0A6R0); experiment: Inhibition of Escherichia coli FabH expressed in Escherichia coli DH10B using holo-ACP/acetyl-CoA as substrate assessed as incorporation of [3H] signal in final product preincubated with holo-ACP for 1 hr followed by acetyl-CoA addition measured after 25 mins by liquid scintillation counting method
T1 sequence (P0A6R0 whole entry): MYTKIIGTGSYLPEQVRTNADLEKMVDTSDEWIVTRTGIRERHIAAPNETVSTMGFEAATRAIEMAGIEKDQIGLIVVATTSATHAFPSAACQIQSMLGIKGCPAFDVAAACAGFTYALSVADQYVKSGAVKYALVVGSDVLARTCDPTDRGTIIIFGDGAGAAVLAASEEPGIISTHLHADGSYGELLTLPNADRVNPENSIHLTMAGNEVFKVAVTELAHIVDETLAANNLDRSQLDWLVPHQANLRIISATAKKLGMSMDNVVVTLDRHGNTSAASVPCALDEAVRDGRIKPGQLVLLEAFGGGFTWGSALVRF

Staphylococcus aureus = experiment: Antibacterial activity against Staphylococcus aureus ATCC 6538 after 24 hrs by MTT assay; type: functional; details: ATCC 6538, 24 h
NIH3T3 = experiment: Cytotoxic activity against mouse NIH/3T3 cells after 24 hrs by MTT assay; type: cell-based; details: NIH3T3, 24 h
Escherichia coli = experiment: Antibacterial activity against Escherichia coli ATCC 25922 after 24 hrs by MTT assay; type: functional; details: ATCC 25922, 24 h
Pseudomonas aeruginosa = experiment: Antibacterial activity against Pseudomonas aeruginosa ATCC 27853 after 24 hrs by MTT assay; type: functional; details: ATCC 27853, 24 h
Bacillus subtilis = experiment: Antibacterial activity against Bacillus subtilis ATCC 530 after 24 hrs by MTT assay; type: functional; details: ATCC 530, 24 h

## O=C(N/N=C/c1cc([N+](=O)[O-])ccc1F)c1ccc2c(c1)OCCCO2
[1]
  IC50: 9.5 µM
Staphylococcus aureus
  MIC: 12.5 µg/mL (≈ 34.8 µM)
NIH3T3
  IC50: 168 µM
Escherichia coli
  MIC: 6.25 µg/mL (≈ 17.4 µM)
Pseudomonas aeruginosa
  MIC: 12.5 µg/mL (≈ 34.8 µM)
Bacillus subtilis
  MIC: 12.5 µg/mL (≈ 34.8 µM)

## COc1ccc(/C=N/NC(=O)c2ccc3c(c2)OCCCO3)cc1OC
[1]
  IC50: 4.1 µM
Staphylococcus aureus
  MIC: 6.25 µg/mL (≈ 17.5 µM)
NIH3T3
  IC50: 126 µM
Escherichia coli
  MIC: 3.13 µg/mL (≈ 8.78 µM)
Pseudomonas aeruginosa
  MIC: 3.13 µg/mL (≈ 8.78 µM)
Bacillus subtilis
  MIC: 3.13 µg/mL (≈ 8.78 µM)

## O=C(N/N=C/c1ccccc1)c1ccc2c(c1)OCCCO2
Staphylococcus aureus
  MIC: > 100 µg/mL
Escherichia coli
  MIC: 50 µg/mL (≈ 169 µM)
Pseudomonas aeruginosa
  MIC: 50 µg/mL (≈ 169 µM)
Bacillus subtilis
  MIC: > 100 µg/mL

## O=C(N/N=C/c1ccc([N+](=O)[O-])cc1)c1ccc2c(c1)OCCCO2
[1]
  IC50: 17.6 µM
Staphylococcus aureus
  MIC: 50 µg/mL (≈ 146 µM)
NIH3T3
  IC50: 185 µM
Escherichia coli
  MIC: 25 µg/mL (≈ 73.2 µM)
Pseudomonas aeruginosa
  MIC: 25 µg/mL (≈ 73.2 µM)
Bacillus subtilis
  MIC: 25 µg/mL (≈ 73.2 µM)

## O=C(N/N=C/c1cc(Cl)ccc1O)c1ccc2c(c1)OCCCO2
[1]
  IC50: 13.2 µM
Staphylococcus aureus
  MIC: 50 µg/mL (≈ 144 µM)
NIH3T3
  IC50: 111 µM
Escherichia coli
  MIC: 12.5 µg/mL (≈ 36 µM)
Pseudomonas aeruginosa
  MIC: 25 µg/mL (≈ 72.1 µM)
Bacillus subtilis
  MIC: 25 µg/mL (≈ 72.1 µM)

## O=C(N/N=C/c1cc(Cl)cc(Cl)c1O)c1ccc2c(c1)OCCCO2
[1]
  IC50: 5.4 µM
Staphylococcus aureus
  MIC: 12.5 µg/mL (≈ 32.8 µM)
NIH3T3
  IC50: 184 µM
Escherichia coli
  MIC: 12.5 µg/mL (≈ 32.8 µM)
Pseudomonas aeruginosa
  MIC: 6.25 µg/mL (≈ 16.4 µM)
Bacillus subtilis
  MIC: 6.25 µg/mL (≈ 16.4 µM)

## O=C(N/N=C/c1ccccc1Br)c1ccc2c(c1)OCCCO2
Staphylococcus aureus
  MIC: 50 µg/mL (≈ 133 µM)
Escherichia coli
  MIC: 50 µg/mL (≈ 133 µM)
Pseudomonas aeruginosa
  MIC: 25 µg/mL (≈ 66.6 µM)
Bacillus subtilis
  MIC: 25 µg/mL (≈ 66.6 µM)

## O=C(N/N=C/c1ccc(F)cc1)c1ccc2c(c1)OCCCO2
[1]
  IC50: 32.5 µM
Staphylococcus aureus
  MIC: 25 µg/mL (≈ 79.5 µM)
NIH3T3
  IC50: 126 µM
Escherichia coli
  MIC: 12.5 µg/mL (≈ 39.8 µM)
Pseudomonas aeruginosa
  MIC: 25 µg/mL (≈ 79.5 µM)
Bacillus subtilis
  MIC: 50 µg/mL (≈ 159 µM)

## Cc1ccc(/C=N/NC(=O)c2ccc3c(c2)OCCCO3)cc1
Staphylococcus aureus
  MIC: > 100 µg/mL
Escherichia coli
  MIC: 50 µg/mL (≈ 161 µM)
Pseudomonas aeruginosa
  MIC: 50 µg/mL (≈ 161 µM)
Bacillus subtilis
  MIC: 50 µg/mL (≈ 161 µM)

## O=C(N/N=C/c1ccc(Cl)c([N+](=O)[O-])c1)c1ccc2c(c1)OCCCO2
[1]
  IC50: 4.4 µM
Staphylococcus aureus
  MIC: 6.25 µg/mL (≈ 16.6 µM)
NIH3T3
  IC50: 147 µM
Escherichia coli
  MIC: 3.13 µg/mL (≈ 8.33 µM)
Pseudomonas aeruginosa
  MIC: 6.25 µg/mL (≈ 16.6 µM)
Bacillus subtilis
  MIC: 3.13 µg/mL (≈ 8.33 µM)

## C(=N\C1CCCCC1)/c1ccc2c(c1)OCCCO2
[1]
  IC50: 1.6 µM

## CN(C)c1ccc(/C=N/NC(=O)c2ccc3c(c2)OCCCO3)cc1
[1]
  IC50: 7.2 µM
Staphylococcus aureus
  MIC: 6.25 µg/mL (≈ 18.4 µM)
NIH3T3
  IC50: 135 µM
Escherichia coli
  MIC: 6.25 µg/mL (≈ 18.4 µM)
Pseudomonas aeruginosa
  MIC: 12.5 µg/mL (≈ 36.8 µM)
Bacillus subtilis
  MIC: 6.25 µg/mL (≈ 18.4 µM)

## COc1cc(/C=N/NC(=O)c2ccc3c(c2)OCCCO3)cc(OC)c1OC
[1]
  IC50: 2 µM
Staphylococcus aureus
  MIC: 3.13 µg/mL (≈ 8.1 µM)
NIH3T3
  IC50: 120 µM
Escherichia coli
  MIC: 1.56 µg/mL (≈ 4.04 µM)
Pseudomonas aeruginosa
  MIC: 3.13 µg/mL (≈ 8.1 µM)
Bacillus subtilis
  MIC: 1.56 µg/mL (≈ 4.04 µM)

## Cc1ccc(/C=N/NC(=O)c2ccc3c(c2)OCCCO3)o1
Staphylococcus aureus
  MIC: > 100 µg/mL
Escherichia coli
  MIC: > 100 µg/mL
Pseudomonas aeruginosa
  MIC: > 100 µg/mL
Bacillus subtilis
  MIC: > 100 µg/mL

## O=C(N/N=C/c1c(F)cccc1Cl)c1ccc2c(c1)OCCCO2
[1]
  IC50: 20.6 µM
Staphylococcus aureus
  MIC: 25 µg/mL (≈ 71.7 µM)
NIH3T3
  IC50: 164 µM
Escherichia coli
  MIC: 12.5 µg/mL (≈ 35.8 µM)
Pseudomonas aeruginosa
  MIC: 25 µg/mL (≈ 71.7 µM)
Bacillus subtilis
  MIC: 50 µg/mL (≈ 143 µM)

## O=C(N/N=C/c1ccc2ccccc2c1)c1ccc2c(c1)OCCCO2
[1]
  IC50: 4.6 µM
Staphylococcus aureus
  MIC: 6.25 µg/mL (≈ 18 µM)
NIH3T3
  IC50: 114 µM
Escherichia coli
  MIC: 6.25 µg/mL (≈ 18 µM)
Pseudomonas aeruginosa
  MIC: 3.13 µg/mL (≈ 9.04 µM)
Bacillus subtilis
  MIC: 3.13 µg/mL (≈ 9.04 µM)

## O=C(N/N=C/c1ccccc1O)c1ccc2c(c1)OCCCO2
Staphylococcus aureus
  MIC: 25 µg/mL (≈ 80 µM)
Escherichia coli
  MIC: 50 µg/mL (≈ 160 µM)
Pseudomonas aeruginosa
  MIC: 50 µg/mL (≈ 160 µM)
Bacillus subtilis
  MIC: 12.5 µg/mL (≈ 40 µM)

## O=C(N/N=C/c1ccc(-c2ccccc2)cc1)c1ccc2c(c1)OCCCO2
[1]
  IC50: 4.7 µM
Staphylococcus aureus
  MIC: 12.5 µg/mL (≈ 33.6 µM)
NIH3T3
  IC50: 146 µM
Escherichia coli
  MIC: 3.13 µg/mL (≈ 8.4 µM)
Pseudomonas aeruginosa
  MIC: 6.25 µg/mL (≈ 16.8 µM)
Bacillus subtilis
  MIC: 6.25 µg/mL (≈ 16.8 µM)

## NC[C@H]1O[C@H](O[C@H]2[C@H](O)[C@@H](O[C@H]3O[C@H](CO)[C@@H](O)[C@H](N)[C@H]3O)[C@H](N)C[C@@H]2N)[C@H](N)[C@@H](O)[C@@H]1O [BEKANAMYCIN]
[1]
  IC50: 5.6 µM
Staphylococcus aureus
  MIC: 1.56 µg/mL (≈ 3.23 µM)
Escherichia coli
  MIC: 3.13 µg/mL (≈ 6.47 µM)
Pseudomonas aeruginosa
  MIC: 3.13 µg/mL (≈ 6.47 µM)
Bacillus subtilis
  MIC: 1.56 µg/mL (≈ 3.23 µM)
